# Legend:
# [1] = tested on: Pancreatic cancer cells (ASPC-1); assay: Anti-cancer drug susceptibility testing, pancreatic cancer cells, 72 h; type: cell-based; settings: 72 h cultures; Gemcitabine alone, TOUCAN 7mGe spiked with MN; FIG. 13
# Method: (§1) Anti-cancer drug susceptibility testing for TOUCAN 7mGe. Gemcitabine and equivalent 7mGe solutions were prepared as explained before. Then, 7mGe was pre-exposed to 10 μl of 10 U MN for 1 hour at 37° C. (7mGe+MN). 100 μl of both drugs (Gemcitabine and 7mGe+MN) were added to the related wells and serially diluted using PBS+/+making the final concentrations between 100-2 μg/μl. Breast cancer cells (MDAMB231) and Pancreatic cancer cells (ASPC-1) were prepared as 10.000 cells/ml and 100 μl cell suspensions were added to each well. The plate was incubated at 37° C. for 72 hours. At 48th hour of incubation, 100 μl CyQUANT® Direct Cell Proliferation Assay kit was added to each well. Cell counts and images were taken at the end of 72 hours incubation period using Cytation 1 Cell Imaging Multi-Mode Reader.
# E. coli ATCC 25922 = assay: Broth microdilution MIC and growth inhibition (control bacteria); type: cell-based, Escherichia coli
# Text: (§2) Bacteria strains. S. aureus NCTC 12493 (MRSA), S. aureus ATCC 29213 (MSSA), S. aureus ATCC 43300 (MRSA), S. aureus ATCC 1707 (MRSA), S. aureus ATCC 1717 (MRSA), S. aureus ATCC 1747 (MRSA), S. aureus ATCC 1761 (MRSA), S. aureus ATCC 1766 (MRSA), S. aureus ATCC 1768 (MRSA), S. epidermidis ATCC 35984, E. coli ATCC 25922, K. pneumoniae ATCC 13883, P. mirabilis ATCC 25933, S. enterica ATCC 14028 and P. aeruginosa ATCC 10145 strains were used in this study. Bacteria were initially inoculated onto tryptone soy agar with 5% defibrinated sheep blood (Thermo Fisher Scientific, Inc., Waltham, MA, USA) and incubated at 37° C. for 24 hours. Then, single colonies of each strain were transferred to tryptone soy broth (Thermo Fisher Scientific) for the nuclease activity assay or antimicrobial susceptibility testing, respectively.
# (§3) Antimicrobial susceptibility testing. Minimal inhibitory concentrations (MIC) of all nucleoside analogues and TOUCANs against each bacteria strain were determined using broth microdilution method. A single colony obtained from overnight culture on tryptone soy agar with 5% defibrinated sheep blood was inoculated in cation-adjusted Mueller Hinton Broth and adjusted to 10^6 CFU/mL. TOUCANs were prepared in PBS+/+ (treatment) and serial dilutions were made in 96-well polystyrene round bottom microwell plates with 50 μL final volume for each concentration. PBS+/+ was used as untreated control. Next, 50 μL bacteria solutions were added to each well to a final bacteria concentration of 5×10^5 CFU/mL. Plates were incubated at 37° C. in Cytation 1 Cell Imaging Multimode Reader. Growth curves were obtained by measuring optical densities at 600 nm every 10 minutes for 18 hours using Cytation 1 Cell Imaging Multimode Reader. In addition, visual inspection of the plates was carried out after 18 hours and photographs were taken. MICs were defined as the lowest drug concentration in the microwell at which bacterial growth was not visible at the end of the incubation period. Besides MIC determination, specificity of TOUCAN 7mGe was also shown with subcultures on chromogenic media. For this purpose, 5 μL of different concentrations of each strain were inoculated onto CHROM agar Orientation Media (Becton Dickinson) and the bacterial growth of each bacteria strain tested was observed by naked eye after incubation at 37° C. for 24 hours. Finally, photographs of the chromogenic media were taken.
# S. enterica ATCC 14028 = assay: as above; type: cell-based
# Text: as §2, §3
# K. pneumoniae ATCC 13883 = assay: as above; type: cell-based
# Text: as §2, §3
# P. aeruginosa ATCC 10145 = assay: as above; type: cell-based
# Text: as §2, §3
# [2] = tested on: other pathogenic bacteria; assay: Specificity study by visual inspection on chromogenic media, non-targeted control bacteria; type: cell-based; settings: all concentrations tested, FIG. 1e
# Method: as §3, with “For this purpose, 5 μL of different concentrations of each strain were inoculated onto CHROM agar Orientation Media (Becton Dickinson) and the bacterial growth of each bacteria strain tested was observed by naked eye after incubation at 37° C. for 24 hours. Finally, photographs of the chromogenic media were taken.” left out
# S. aureus [3] = assay: Specificity study by visual inspection on chromogenic media, targeted bacteria; type: cell-based, Staphylococcus aureus; settings: FIG. 1e
# Method: as §3, with “For this purpose, 5 μL of different concentrations of each strain were inoculated onto CHROM agar Orientation Media (Becton Dickinson) and the bacterial growth of each bacteria strain tested was observed by naked eye after incubation at 37° C. for 24 hours. Finally, photographs of the chromogenic media were taken.” left out
# [4] = tested on: S. aureus ATCC 1768 (MRSA); assay: Broth microdilution MIC and growth inhibition; type: cell-based, Staphylococcus aureus
# Text: as §2, §3
# [5] = tested on: S. aureus ATCC 1766 (MRSA); assay: Broth microdilution MIC and growth inhibition; type: cell-based, Staphylococcus aureus; settings: S. aureus ATCC 1766 (MRSA)
# Text: as §2, §3
# [6] = tested on: S. aureus ATCC 1717 (MRSA); assay: Broth microdilution MIC and growth inhibition; type: cell-based, Staphylococcus aureus
# Text: as §2, §3
# [7] = tested on: S. aureus ATCC 1761 (MRSA); assay: Broth microdilution MIC and growth inhibition; type: cell-based, Staphylococcus aureus
# Text: as §2, §3
# [8] = tested on: S. aureus NCTC 12493 (MRSA); assay: Broth microdilution MIC and growth inhibition; type: cell-based, Staphylococcus aureus; settings: for growth inhibition, dose response: NCTC-12493 (MRSA), FIG. 5a-b
# Text: as §2, §3
# [9] = tested on: S. aureus ATCC 1747 (MRSA); assay: Broth microdilution MIC and growth inhibition; type: cell-based, Staphylococcus aureus
# Text: as §2, §3
# [10] = tested on: S. aureus ATCC 29213 (MSSA); assay: Broth microdilution MIC and growth inhibition; type: cell-based, Staphylococcus aureus; settings: S. aureus ATCC 29213 (MSSA)
# Text: as §2, §3
# [11] = tested on: S. aureus ATCC 43300 (MRSA); assay: Broth microdilution MIC and growth inhibition; type: cell-based, Staphylococcus aureus
# Text: as §2, §3
# [12] = tested on: S. aureus ATCC 1707 (MRSA); assay: Broth microdilution MIC and growth inhibition; type: cell-based, Staphylococcus aureus
# Text: as §2, §3
# [13] = tested on: Breast cancer cells (MDAMB231); assay: Anti-cancer drug susceptibility testing, breast cancer cells, 72 h; type: cell-based; settings: 72 h of treatment; Gemcitabine alone, TOUCAN 7mGe spiked with MN; FIG. 14
# Method: as §1
# S. aureus [14] = assay: Growth inhibition curves / MICs in S. aureus cultures (strain not named or summary over strains); type: cell-based, Staphylococcus aureus
# Method: as §3
# [15] = tested on: S. epidermidis ATCC 35984; assay: Broth microdilution MIC and growth inhibition (control bacteria); type: cell-based, Staphylococcus epidermidis
# Text: as §2, §3
# P. mirabilis ATCC 25933 = assay: as above; type: cell-based, Proteus mirabilis
# Text: as §2, §3
substance,measurement,setting,value
mU-mU-mU-mU-T-T-Ge [TOUCAN 7mGe],killing of pancreatic cancer cells (viability),[1],efficient in killing
same,MIC,"E. coli ATCC 25922; 18 h, TOUCAN as NA equivalent",>40 mg/L
same,TOUCAN % Growth inhibition,"E. coli ATCC 25922; mean ± SD, n = 3",0 ± 0.00%
same,MIC,"S. enterica ATCC 14028; 18 h, TOUCAN as NA equivalent",>40 mg/L
same,TOUCAN % Growth inhibition,"S. enterica ATCC 14028; mean ± SD, n = 3",12.5 ± 5.7%
same,MIC,"K. pneumoniae ATCC 13883; 18 h, TOUCAN as NA equivalent",>40 mg/L
same,TOUCAN % Growth inhibition,"K. pneumoniae ATCC 13883; mean ± SD, n = 3",4.9 ± 3.1%
same,MIC,"P. aeruginosa ATCC 10145; 18 h, TOUCAN as NA equivalent",>40 mg/L
same,TOUCAN % Growth inhibition,"P. aeruginosa ATCC 10145; mean ± SD, n = 3",0 ± 0.00%
same,viability on chromogenic media,[2],remained viable
same,inhibition on chromogenic media,S. aureus [3]; 5 μg/mL,partially inhibited
same,inhibition on chromogenic media,S. aureus [3]; 10 and 20 μg/mL,completely inhibited
same,MIC,"[4]; 18 h, TOUCAN as NA equivalent",>40 mg/L
same,TOUCAN % Growth inhibition,"[4]; mean ± SD, n = 3",61.9 ± 1.1%
same,MIC,"[5]; 18 h, TOUCAN as NA equivalent",>40 mg/L
same,TOUCAN % Growth inhibition,"[5]; mean ± SD, n = 3",86.2 ± 0.9%
same,MIC,"[6]; 18 h, TOUCAN as NA equivalent",>40 mg/L
same,TOUCAN % Growth inhibition,"[6]; mean ± SD, n = 3",72.9 ± 1.2%
same,TOUCAN MIC/NA MIC TOUCAN Efficacy Ratio (TER),[7],2500
same,MIC,"[7]; 18 h, TOUCAN as NA equivalent",40 mg/L
same,TOUCAN % Growth inhibition,"[7]; mean ± SD, n = 3",90.1%
same,"growth inhibition, dose response",[8]; 1.25 and 2.5 g/mL,partial effect
same,"growth inhibition, dose response",[8]; concentrations from 5 to 40 μg/mL,96%
same,TOUCAN MIC/NA MIC TOUCAN Efficacy Ratio (TER),[8]; S. aureus NCTC 12493 (MRSA),1250
same,MIC,"[8]; S. aureus NCTC 12493 (MRSA), 18 h, TOUCAN as NA equivalent",5 mg/L
same,TOUCAN % Growth inhibition,"[8]; S. aureus NCTC 12493 (MRSA), mean ± SD, n = 3",85.3%
same,MIC,"[9]; 18 h, TOUCAN as NA equivalent",>40 mg/L
same,TOUCAN % Growth inhibition,"[9]; mean ± SD, n = 3",44.9 ± 0.7%
same,MIC,"[10]; 18 h, TOUCAN as NA equivalent",>40 mg/L
same,TOUCAN % Growth inhibition,"[10]; mean ± SD, n = 3",52.5 ± 1.1%
same,MIC,"[11]; 18 h, TOUCAN as NA equivalent",>40 mg/L
same,TOUCAN % Growth inhibition,"[11]; mean ± SD, n = 3",66.6 ± 1.6%
same,MIC,"[12]; 18 h, TOUCAN as NA equivalent",>40 mg/L
same,TOUCAN % Growth inhibition,"[12]; mean ± SD, n = 3",61.5 ± 0.5%
same,therapeutic effect in breast cancer cells (viability),[13],slightly higher
same,growth inhibition,"S. aureus [14]; S. aureus (target), FIG. 1d",high growth inhibition
same,bacterial growth inhibition,"S. aureus [14]; S. aureus cultures, optical density (OD) over 18 h, FIG. 1b",96%
same,inhibition of bacterial growth (therapeutic efficacy),"S. aureus [14]; combinations of the R-S-D moieties, FIG. 1c",more than 99%
same,associated toxicity to non-targeted bacteria,"[15]; S. epidermidis (control), FIG. 1d",minimal associated toxicity
same,MIC,"[15]; S. epidermidis ATCC 35984, 18 h, TOUCAN as NA equivalent",>40 mg/L
same,TOUCAN % Growth inhibition,"[15]; S. epidermidis ATCC 35984, mean ± SD, n = 3",3.6 ± 2.0%
same,"growth inhibition, dose response","[15]; S. epidermidis, all concentrations tested, FIG. 5",No growth inhibition
same,MIC,"P. mirabilis ATCC 25933; 18 h, TOUCAN as NA equivalent",>40 mg/L
same,TOUCAN % Growth inhibition,"P. mirabilis ATCC 25933; mean ± SD, n = 3",8.3 ± 0.6%

# Source: patent publication US20250269039A1, “THERAPEUTIC-OLIGONUCLEOTIDES ACTIVATED BY NUCLEASES” (priority 2020, published 2025)
